In patent publication US20260132129A1 (Genesis Therapeutics, Inc., priority 2022, published 2026):

Target: T1, PI3Kα H1047R (T47D cells) (Homo sapiens, UniProt P42336, H1047R)
T1 construct: endogenous in cells; host or cells: T47D cells
Assay: PI3Kα cellular assay: pAKT HTRF in T47D cells after EGF stimulation
Assay type: cell-based
Settings: for IC50: T47D cells (PI3Kα H1047R), pAKT S473 HTRF
Method in brief: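 pAKT read by HTRF in lysates of EGF-stimulated (20 ng/mL, 10 min) T47D H1047R cells. Before stimulation, serum-starved cells (16 h) received compound for 1 h at 37 °C, dosed from 10,000 nM down to 0.5 nM in 3-fold steps.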

[1] = 1 hr compound, 20 ng/ml EGF 10 min
[2] = selectivity T47D (H1047R) over SKBR3 (WT), pAKT HTRF
[3] = selectivity of T47D (H1047R) over SKBR3 (WT) pAKT IC50

T1 sequence (P42336 whole entry H1047R): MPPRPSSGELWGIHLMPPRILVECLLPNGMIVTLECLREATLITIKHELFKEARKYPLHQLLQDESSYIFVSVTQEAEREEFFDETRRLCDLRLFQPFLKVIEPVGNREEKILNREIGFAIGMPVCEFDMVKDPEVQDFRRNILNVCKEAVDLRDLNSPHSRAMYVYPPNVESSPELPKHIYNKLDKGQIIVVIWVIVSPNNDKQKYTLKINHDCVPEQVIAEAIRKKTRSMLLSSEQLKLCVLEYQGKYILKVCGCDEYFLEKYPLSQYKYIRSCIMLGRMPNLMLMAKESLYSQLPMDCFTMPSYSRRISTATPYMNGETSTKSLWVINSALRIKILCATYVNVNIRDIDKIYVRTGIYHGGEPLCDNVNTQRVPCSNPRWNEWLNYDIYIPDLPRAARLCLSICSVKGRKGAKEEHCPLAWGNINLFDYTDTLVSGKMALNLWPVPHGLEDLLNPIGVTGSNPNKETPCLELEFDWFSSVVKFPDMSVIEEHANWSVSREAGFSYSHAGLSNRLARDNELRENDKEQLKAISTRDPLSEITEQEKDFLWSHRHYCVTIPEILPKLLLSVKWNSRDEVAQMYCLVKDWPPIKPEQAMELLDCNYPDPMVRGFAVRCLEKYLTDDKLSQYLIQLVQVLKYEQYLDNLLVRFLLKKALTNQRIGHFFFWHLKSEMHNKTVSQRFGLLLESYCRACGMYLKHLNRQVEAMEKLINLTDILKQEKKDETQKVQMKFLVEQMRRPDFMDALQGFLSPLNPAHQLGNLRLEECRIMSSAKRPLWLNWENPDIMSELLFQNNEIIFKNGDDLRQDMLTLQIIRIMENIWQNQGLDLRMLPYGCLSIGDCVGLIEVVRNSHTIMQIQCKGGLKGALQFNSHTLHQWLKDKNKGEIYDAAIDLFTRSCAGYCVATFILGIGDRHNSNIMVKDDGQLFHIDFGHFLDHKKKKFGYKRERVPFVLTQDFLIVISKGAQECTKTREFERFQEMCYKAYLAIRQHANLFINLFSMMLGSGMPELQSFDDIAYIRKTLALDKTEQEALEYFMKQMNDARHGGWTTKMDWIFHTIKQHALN
T1 sequence (P27986 whole entry partner): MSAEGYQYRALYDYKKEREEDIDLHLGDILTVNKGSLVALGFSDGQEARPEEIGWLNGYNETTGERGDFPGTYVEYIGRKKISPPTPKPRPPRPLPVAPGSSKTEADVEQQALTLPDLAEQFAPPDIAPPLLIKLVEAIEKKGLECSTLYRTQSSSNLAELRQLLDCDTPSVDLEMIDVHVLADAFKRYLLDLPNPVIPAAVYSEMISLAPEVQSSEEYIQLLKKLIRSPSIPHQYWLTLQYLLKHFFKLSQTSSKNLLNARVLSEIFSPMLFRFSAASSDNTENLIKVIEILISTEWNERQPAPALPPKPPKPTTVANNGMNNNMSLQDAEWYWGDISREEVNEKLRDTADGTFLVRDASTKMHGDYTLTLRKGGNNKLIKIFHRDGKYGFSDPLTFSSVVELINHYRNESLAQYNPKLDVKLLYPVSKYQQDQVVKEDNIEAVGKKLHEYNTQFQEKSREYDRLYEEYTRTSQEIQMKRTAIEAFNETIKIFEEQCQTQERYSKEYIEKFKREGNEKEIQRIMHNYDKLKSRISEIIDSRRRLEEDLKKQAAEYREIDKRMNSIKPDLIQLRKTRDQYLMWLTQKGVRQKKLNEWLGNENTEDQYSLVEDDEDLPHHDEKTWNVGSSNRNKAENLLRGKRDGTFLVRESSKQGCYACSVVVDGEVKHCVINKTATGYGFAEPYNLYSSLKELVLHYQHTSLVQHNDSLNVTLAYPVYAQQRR

| Structure (SMILES) | IC50 [1] | T47D pAKT S473 HTRF IC50 (H1047R): T47D (H1047R) selectivity over SKBR3 (WT) [2] | IC50 (EGF stimulation) | T47D pAKT S473 HTRF IC50 (H1047R): T47D (H1047R) selectivity over SKBR3 (WT) [3] |
| --- | --- | --- | --- | --- |
| Cc1cc(C(C)Nc2ccccc2-c2ccnnc2)c2nc(N3CCOCC3)cc(=O)n2c1 (stereo not shown) [Compound 494] | > 2000 nM | C (C denotes ≤5-fold) | – | – |
| Cc1cc([C@H](C)Nc2ccccc2C(=O)O)c2nc(-c3ccc(C4CN(C)C4)nc3)c(C)c(=O)n2c1 [Compound 1343] | – | C (C denotes ≤5-fold) | – | – |
| Cc1cc(C(C)Nc2ccccc2C)c2nc(N3CCOCC3)cc(=O)n2c1 (stereo not shown) [Compound 154] | > 2000 nM | C (C denotes ≤5-fold) | – | – |
| Cc1cc([C@H](C)Nc2ccccc2S(N)(=O)=O)c2nc([C@H]3CCCN(CC(F)F)C3)c(C)c(=O)n2c1 [Compound 1312] | – | A (A denotes >20-fold) | < 100 nM | – |
| Cc1cc(C(C)Nc2ccccc2C(=O)O)c2nc(-c3ccc(C(=O)NO)cc3)cc(=O)n2c1 (stereo not shown) [Compound 487] | > 2000 nM | C (C denotes ≤5-fold) | – | – |
| Cc1cc([C@@H](C)Nc2ccccc2C(=O)O)c2nc(-c3ccc(CC4CCN(C(=O)C5CC5)CC4)c(F)c3)c(C)c(=O)n2c1 [Compound 1314] | – | A (A denotes >20-fold) | 100 to 500 nM | – |
| Cc1cc([C@@H](C)Nc2ccccc2S(N)(=O)=O)c2nc(N3Cc4cccnc4C3)c(C)c(=O)n2c1 [Compound 1323] | – | A (A denotes >20-fold) | < 100 nM | – |
| Cc1cc([C@@H](C)Nc2ccccc2C(=O)O)c2nc(-c3ccc(C4CCCC(C)C4)cc3)c(C)c(=O)n2c1 (stereo partly shown) [Compound 1338] | – | C (C denotes ≤5-fold) | – | – |
| Cc1cc([C@H](C)Nc2ccccc2C(=O)O)c2nc(-c3ccnc(C4CC4)c3)cc(=O)n2c1 [Compound 1156] | – | A (A denotes >20-fold) | < 100 nM | – |
| Cc1cc([C@H](C)Nc2cccc3c2CCC(=O)N3)c2nc(N3CCOCC3)cc(=O)n2c1 [Compound 688] | – | – | > 2000 nM | C (C denotes ≤5-fold) |
| Cc1cc([C@@H](C)Nc2ccccc2C(=O)O)c2nc(-c3cc4c(N)nn(C)c4cc3C)cc(=O)n2c1 [Compound 704] | – | – | > 2000 nM | C (C denotes ≤5-fold) |
| Cc1cc([C@H](C)Nc2ccccc2C(=O)O)c2nc(N3C[C@H](C)C[C@H](C)C3)cc(=O)n2c1 [Compound 513] | > 2000 nM | C (C denotes ≤5-fold) | – | – |
| CCc1c(-c2ccc3c(c2)c(C)cn3C)nc2c([C@H](C)Nc3ccccc3C(=O)O)cc(C)cn2c1=O [Compound 1043] | – | – | – | B (B denotes 20-fold≥value>5-fold) |
| Cc1cc([C@@H](C)Nc2ccccc2C(=O)O)c2nc(-c3ccc4nc(NC(=O)C5CC5)nn4c3)cc(=O)n2c1 [Compound 520] | > 2000 nM | C (C denotes ≤5-fold) | – | – |
| CCc1ccn2c(=O)c(C)c(-c3cccc(F)c3)nc2c1[C@H](C)Nc1ccccc1C(=O)O [Compound 1326] | – | A (A denotes >20-fold) | < 100 nM | – |
| Cc1cc(C(C)Nc2ccccc2S(N)(=O)=O)c2nc(-c3ccc(F)cc3)cc(=O)n2c1 (stereo not shown) [Compound 585] | > 2000 nM | C (C denotes ≤5-fold) | – | – |
| Cc1cc([C@H](C)Nc2ccccc2C(=O)O)c2nc(-c3ccc(F)c(C#N)c3)c(C)c(=O)n2c1 [Compound 948] | – | – | 500 to 2000 nM | B (B denotes 20-fold≥value>5-fold) |
| Cc1cc(C(C)Nc2ccccc2C(=O)O)c2nc(-c3ccc4[nH]nc(-c5ccccn5)c4c3)cc(=O)n2c1 (stereo not shown) [Compound 304] | > 2000 nM | C (C denotes ≤5-fold) | – | – |
| CC1=CC2C(=O)C=C([C@H]3CC[C@H](CC4CC[C@H](O)C4)CC3)N=C2C([C@H](C)Nc2ccccc2C(=O)O)=C1 (stereo partly shown) [Compound 778] | – | – | > 2000 nM | C (C denotes ≤5-fold) |
| Cc1cc([C@H](C)Nc2ccccc2C(=O)O)c2nc(-c3ccc4c(c3)c(C3CC3)nn4C)cc(=O)n2c1 [Compound 749] | – | – | > 2000 nM | C (C denotes ≤5-fold) |
| Cc1cc(C(C)Nc2ccccc2C(=O)O)c2nc(C3CCCOC3)c(C#N)c(=O)n2c1 (stereo not shown) [Compound 1353] | – | A (A denotes >20-fold) | 100 to 500 nM | – |
| Cc1cc([C@@H](C)Nc2ccccc2C(=O)O)c2nc(-c3ccc(C4CCC(C(=O)C5CC5)CC4)c(F)c3)c(C)c(=O)n2c1 (stereo partly shown) [Compound 1318] | – | C (C denotes ≤5-fold) | – | – |
